We go through one compound from US11065249B2, “Diacylglycerol acyl transferase 2 inhibitor” (Pfizer Inc., priority 2019, dated 2021).

≈ marks a conversion by molar mass, not a printed value.

Broadly, the solubility is how much of the substance goes into solution per volume. A higher solubility goes with much dissolved substance. By microsomal CLint is commonly meant the rate of metabolic loss divided by the concentration. A high value points to rapid turnover. As a reminder, the hepatocyte CLint is the capacity of the preparation to metabolise the compound, expressed as a volume cleared per time. High values mean rapid turnover, low ones slow turnover. The pKa is the pH at which an ionisable group is half protonated. Low readings indicate a group that gives up its proton readily, high ones a group that holds its proton tightly.

Series [1] has as its system Western diet fed Sprague-Dawley rats. Nature of the series: Rat western diet model: in vivo effects on plasma and hepatic triglyceride levels. The note with it: oral twice daily 3-100 mg/kg, compared with chow-fed vehicle animals. The source says: The rat western diet model was utilized to assess the effects of DGAT2 inhibitor treatment on plasma triglyceride production and hepatic triglyceride content in vivo. Male Sprague-Dawley rats were housed under standard laboratory conditions on a 12-hour light, 12-hour dark cycle (lights on at 06:00). Two weeks prior to study start animals were placed on a high-fat, high sucrose, high-cholesterol diet (D12079b, provided by Research Diets, New Brunswick, N.J.). This diet provides ˜43% of kilocalories from carbohydrate and ˜41% of kilocalories from fat. Example 4 was administered orally as a solution (10 mL/kg dosing volume) in 0.5% methylcellulose in deionized water, pH 7.0-7.5 (methylcellulose was obtained from Sigma-Aldrich, St. Louis, Mo.). […] Plasma TG levels were determined using a Roche Hitachi Chemistry analyzer according to the manufacturer's instructions (Roche Diagnostics Corporation, Indianapolis, Ind.) and data was analyzed using GraphPad Prism (GraphPad Software, Inc., La Jolla, Calif.). […] The triglyceride assay was performed through absorbance and reported as milligrams per deciliter. […]
FIG. 4 plots the multiple dose effects of Example 4 on Plasma Triglyceride in Western Diet Fed Sprague-Dawley Rats where plasma triglyceride levels were determined from blood drawn from the lateral tail vein 2-hours following the final dose of Example 4. […]

Series [2] can be described thus: Thermodynamic solubility in various biorelevant media (PBS, SGN, FaSSIF, FeSSIF). It counts as physicochemical. As to conditions: 25 °C, thermodynamic from solid. Here is the method:
The solubility of active pharmaceutical ingredients is an important characteristic in determining biological performance and ease of formulation during drug development, with high solubility being preferred (Klein, S. 2010, The AAPS Journal, 12, 397-406; Di, L., et al 2012, Drug Disc. Today, 17.486-495). A test sample of crystalline solid (˜7 mg) was combined in a vial with 1 mL of the relevant buffer solution and the mixture vortexed to combine. If the solid dissolved completely, additional solid was added with vortexing until a saturated solution was obtained. The saturated solution/solid mixture was capped and subjected to temperature cycling as follows: 1 min at 25° C.; 8 h at 40° C.; 5 h at 15° C. and 12 h at 25° C. The mixture was filtered in a centrifugal filtration device (0.22 μm PVDF filter, MilliporeSigma, Milwaukee, Wis.) at 13,000 rpm and the concentration of the test compound in the filtrate was determined by HPLC/UPLC with reference to a three point standard curve. Phosphate buffered saline (PBS, pH 6.8, 50 mM phosphate buffer, 250 mM NaCl). Simulated gastric fluid (SGN pH 1.2, USP recipe). Fasted state simulated intestinal fluid (FaSSIF, 3 mM sodium taurocholate, 0.75 mM phospholipid from soybean lecithin, 50 mM phosphate buffer, ionic strength adjusted to 250 mM with NaCl, pH 6.8) and fed state simulated intestinal fluid (FeSSIF, 15 mM sodium taurocholate, 3.75 mM phospholipid from soybean lecithin, 144 mM acetic acid, 50 mM phosphate buffer, ionic strength adjusted to 250 mM with NaCl, pH 6.8).

Series [3] can be described thus: Intrinsic clearance in human liver microsomes. Type of series: in vitro ADME. As to conditions: human, pooled human liver microsomes, pH 7.4, human liver microsome assay, 1 μM test compound; mean +/− STD Dev. As to the method:
The incubations were conducted at 37° C. […] (Sorvall R C 3C Plus, Thermo Scientific, Waltham, Mass.).
(In general: Microsomes from liver hold many membrane-bound enzymes, among them those of drug oxidation.)

Series [4] is described as follows: High throughput determination of intrinsic clearance in human hepatocytes. Type of series: in vitro ADME. The note with it: human, pooled cryopreserved human hepatocytes (suspension), high throughput human hepatocyte assay, 1 μM test compound; mean +/− Std Dev. As to the method:
The incubation was carried out at 37° C. […] The samples were centrifuged (Eppendorf, Hauppauge, N.Y.) at 3000 rpm for 5 min at 4° C.

The nature of series [5]: Determination of pKa (capillary electrophoresis, Analiza). It counts as physicochemical. As to conditions: most basic pKa, mean.
Series [6] can be described thus: Intrinsic clearance in human hepatocytes (relay method). Type of series: in vitro ADME. As to conditions: cryopreserved human hepatocytes (suspension), relay hepatocyte assay, 1 μM test compound, mean +/− Std Dev. As to the method: Cryopreserved human hepatocytes (Lot DCM from BioreclamationIVT) were used. […] At time 0 and 4 h, 25 μL of hepatocyte suspension was removed from the incubation and added to 50 μL of ice-cold acetonitrile (containing metoprolol, indomethacin, and terfenadine as internal standards) to quench the reaction. The samples were centrifuged (Eppendorf, Hauppauge, N.Y.) at 3000 rpm (1439×g) for 10 min at room temperature, and 50 μL of supernatant was transferred to a clean plate, dried completely, and reconstituted before liquid chromatography/tandem mass spectrometry (LC-MS/MS) analysis. The remaining hepatocyte suspensions in the incubation plate were centrifuged (3000 rpm, 1439×g, 10 min, room temperature). The supernatant of 300 μL was transferred to a clean 24-well plate and stored at −80° C. until the next relay experiment. For the second relay experiment, the supernatant plates were warmed first to room temperature for 30 minutes, then to 37° C. for 30 min, and hepatocytes were added to the samples to give a final cell density of 0.5 million cells/mL. The plates were incubated at 37° C. for 4 h, sampled, and processed as described above. Five relays were performed to give a total incubation time of 20 h, with sampling points at (0, 4, 8, 12, 16 and 20 h). The concentrations of test compound determined at each time point by the LC-MS/MS analysis were used to calculate the intrinsic clearance.

On to `CCOc1cccnc1Oc1cncc(-c2ncc(C(=O)N[C@@H]3CNC[C@@H](F)C3)cn2)c1` [Example 4, 2-{5-[(3-Ethoxypyridin-2-yl)oxy]pyridin-3-yl}-N-[(3S,5S)-5-fluoropiperidin-3-yl]pyrimidine-5-carboxamide], for which, in series [1], the “circulating triglyceride response, resulting levels” value is “approached those of the chow-fed vehicle animals”. Also, the solubility at 25 h was 955 µg/mL (≈ 2180 µM) in series [2] (fasted state simulated intestinal fluid (FaSSIF), FaSSIF pH 6.8); 580 µg/mL (≈ 1320 µM) in series [2] (phosphate buffered saline, aqueous buffer, PBS, pH 6.8); more than 27000 µg/mL in series [2] (simulated gastric fluid, SGN pH 1.2). Also, the microsomal CLint at 1 μM in series [3] was less than 7 µL/min/mg. Also, the hepatocyte CLint at 1 μM was less than 1.8 µL/min/1e6 cells in series [4] and 0.98 µL/min/1e6 cells in series [6]. In addition, in series [5], the pKa was 7.5.
